{
  "source": "patent US8470333B2",
  "about": "“Chimeric peptides comprising HER-2 B-cell epitopes and T-helper epitopes” (The Ohio State University Research Foundation, priority 2005, dated 2013)",
  "key": {"[1]": {"test_system": "NT2.5 tumor cell line", "test": "NT2.5 tumor challenge in immunized FVB/n mice", "type": "in vivo, mouse", "details": "for doubling time: NT2.5 tumor in vaccinated FVB/N mice; for mean tumor volumes at day 30: FVB/n mice, 5×10^6 NT2.5 cells s.c. two weeks after final immunization, data not shown", "description": "(§1) The human EGFR disulfide pairings have been defined. Based on the high homology between EGFR and HER-2, the 628-647 epitope to 626-649 to incorporate two disulfide bonds between Cys-626 and Cys-634, and Cys-630 and Cys-642. Differential side chain protection and a specialized deprotection and oxidation successfully generated the cyclized product with a desired secondary structural characteristics as determined by CD measurements. […] Cyclized antibodies elicited twice the level of specific lysis compared to non-cyclized antibodies in an ADCC assay (11 and 5.6% respectively). To investigate the in vivo effect of these peptide vaccines, inbred FVB/N mice were immunized with the constructs. Both constructs were immunogenic in these mice with the cyclized construct generating higher titers. These mice were then challenged with the NT2.5 tumor cell line which has an FVB/N background.\nTo better understand the potential clinical benefit associated with introducing conformational constraints into B-cell epitope vaccines, both FVB/n and neu-N transgenic mice were challenged with the tumor cell line NT2.5 derived from a spontaneous mammary tumor isolated from a neu-N transgenic mouse. As a consequence of neu over-expression these mice develop spontaneous mammary adenocarcinomas in a manner similar to that observed in human breast cancer patients, and are therefore a suitable model for human breast cancer studies. […] (lower abdomen) two weeks after final immunization. Tumor measurements were taken twice weekly until day 55. Tumor volumes were calculated by the formula (long measurement×short measurement^2)/2. Note that after day 30 the tumors in FVB/n mice begin to regress, indicative of rejection of the tumor. With subsequent tumor studies using FVB/n mice, tumors were measured to day 30."}, "[2]": {"test_system": "trastuzumab", "test": "ELISA binding of trastuzumab to peptides", "details": "FIG. 4", "method": "The peptide sequences are given on the x-axis. MVF316-339 is an Her-2 irrelevant control peptide;\nMicrotiter wells were coated overnight with 2 μg/ml of various peptides and then blocked with 1% BSA for one hour. […] Values shown are the mean of duplicate samples. SEM are indicated by error bars."}, "[3]": {"test_system": "FVB/n mice", "test": "Immunogenicity in FVB/n mice, antibody titers by direct ELISA", "type": "in vivo, mouse", "method": "Groups of four to ten FVB/n mice were immunized with linear (NC) or disulfide-bonded (SS) peptide constructs (A) MVF563-598, (B) MVF585-598, (C) MVF597-626, or the linear peptide (D) MVF613-626. Each mouse is represented as an individual bar. Note that the scale in A is different then B-D;\nDirect ELISAs were performed on sera from mice immunized with the cyclized (CYC) and linear (NC) constructs to determine differences in immunogenicity. Antibody titers against the corresponding immunogen were defined as the reciprocal of the highest dilution with absorbance ≧0.2. Each bar represents an individual mouse. Designation on the x-axis represents time at which sera was sampled, e.g. 1y+3 corresponds to serum collected three weeks after the first immunization. Neu-N mice have an FVB/n background and express normal rat neu proto-oncogene under control of a mammary-specific promoter. These mice show tolerance to neu relative to non-transgenic mice (Cancer Research 60, 3569).\nDirect ELISA. U-bottom polyvinyl chloride plastic assay plates were coated with 100 μl of antigen at 2 μg/ml in PBS overnight at 4° C. Nonspecific binding sites were blocked for 1 hour with 200 μl PBS-1% BSA and plates were washed with PBT (phosphate-buffered saline containing 0.05% Tween 20 and 1% horse serum). Rabbit antiserum 1/500 or mouse antiserum 1/50 in PBT was added to antigen coated plates, serially diluted 1:2 in PBT, and incubated 2 hr at room temperature. After washing the plates, 50 μl of 1/500 goat anti-rabbit or goat anti-mouse IgG conjugated to horseradish peroxidase (Pierce Chemical Co.) was added to each well. Excess antibody conjugate was removed, and bound antibody was detected using 50 μl of 0.15% H2O2 in 24 mM citric acid, 5 mM sodium phosphate buffer, pH 5.2, with 0.5 mg/ml […] as the chromophore. Color development was allowed to proceed for 10 min and the reaction was stopped with 25 μl of 1% sodium dodecylsulfate. Absorbance was determined at 410 nm using a Dynatech MR700ELISA reader. Results are expressed as the mean absorbance of duplicate wells after subtraction of background.\nThe immunogenicity of the 4 constructs listed in Table 1 was determined using both the disulfide-bonded and linear constructs by immunizing groups of FVB/n mice (n=4-9) 6-8 weeks old. […] Three mice that received the cyclized form of 597-626 had titers above 120,000, while no mouse that received the linear form had titers above 120,000."}, "[4]": {"test_system": "effector human PBMCs", "test": "IFN-γ release in the presence of effector human PBMCs", "type": "cell-based", "details": "antibodies against the construct"}, "[5]": {"test": "ADCC assay (Example 1)", "type": "cell-based", "details": "antibodies against the epitope", "description": "as §1"}, "[6]": {"test_system": "cells overexpressing HER-2", "test": "Anchorage-independent growth assay", "type": "cell-based", "details": "antibodies against the epitope"}, "[7]": {"biological_target": "T1, HER-2 protein (Homo sapiens, UniProt P04626)", "T1 construct": "endogenous in cells; host or cells: SKBR3 or MCF-7 according to the general method", "test": "Flow cytometry binding of anti-peptide antibodies to HER-2 protein (Example 1)", "type": "cell-based", "details": "antibodies against the epitope; flow cytometry binding to HER-2 protein", "method": "Indirect Binding Assay. SKBR3 cells or MCF-7 cells were plated at 5,000 cells/well in V-bottom plates (Linbro, McLean Va.). The cells were incubated with various concentrations of antibodies. After being washed with Hank's Balanced Salts Solution (HBSS) the cells were incubated for one hour with fluorescein isothiocyanate (FITC)-conjugated goat anti-rabbit or goat anti-mouse antibody and fixed with formalin. A mouse monoclonal Ab (Oncogene Science, Cambridge, Mass.) was used as the positive control and an anti-CD3 Ab as the negative control. The cells were analyzed by a Coulter ELITE flow cytometer (Coulter, Hialeah, Fla.), which has an argon laser for excitation at 488 nm, and a 525 run band pass filter for FITC fluorescence 5.0×10^3 cells were counted for each sample and final processing was performed. Debris, cell clusters and dead cells were gated out by light scatted assessment before single parameter histograms were drawn.\nThe human EGFR disulfide pairings have been defined. Based on the high homology between EGFR and HER-2, the 628-647 epitope to 626-649 to incorporate two disulfide bonds between Cys-626 and Cys-634, and Cys-630 and Cys-642. Differential side chain protection and a specialized deprotection and oxidation successfully generated the cyclized product with a desired secondary structural characteristics as determined by CD measurements. […]"}, "[8]": {"test_system": "SKBR-3 breast cancer cell line", "test": "Flow cytometry of peptide antibodies with SKBR-3 cells", "type": "cell-based, human", "details": "purified antibodies from immunized mouse sera, FIG. 13", "method": "(§2) The reactivity of purified antibodies from immunized mouse sera was tested with (A) BT474 and (B) SKBR-3 breast cancer cell lines using flow cytometric analysis. Ab binding was detected with goat-anti mouse FITC-conjugated abs. The x-axis represents fluorescent intensity, and the y-axis represents relative cell number. Each histogram contains an overlay of mouse pre IgG, peptide antibodies, and AB2, a mouse mAb that binds HER-2.\nCell Culture. Stock cultures were maintained at 37° C. in a 5% CO2 incubator. All cell culture media, FCS, and supplements were purchased from GEBCO (Grand Island, N.Y.). The human breast adenocarcinoma cell lines SKBR-3 and MCF-7 were obtained from the American Type Culture Collection and was subcultured in McCoy's 5A or DMEM supplemented with 10% FCS and L-glutainine. Cav-1 was maintained in RPMI 1640 with 10% FCS and L-glutamine. […] SKBR3 is a breast tumor cell line which overexpresses the HER-2 protein while MCF-7 expresses the normal concentration of protein.\n(§3) Indirect Binding Assay. SKBR3 cells or MCF-7 cells were plated at 5,000 cells/well in V-bottom plates (Linbro, McLean Va.). […] The cells were analyzed by a Coulter ELITE flow cytometer (Coulter, Hialeah, Fla.), which has an argon laser for excitation at 488 nm, and a 525 run band pass filter for FITC fluorescence 5.0×10^3 cells were counted for each sample and final processing was performed. […]"}, "[9]": {"test_system": "BT-474 human breast cancer cells (HER-2high)", "test": "Flow cytometry of peptide antibodies with BT474 cells", "type": "cell-based", "method": "Flow cytometry was used to assess whether antibodies from FVB/n mice induced by various constructs recognize native HER-2. BT-474 human breast cancer cells (HER-2high) were treated with 10 μg/mL of normal mouse Ig (negative control), mouse monoclonal Ab-2 (positive control), or peptide antibodies raised in FVB/n mice.\nas §2\nas §3, with “Va.). The cells were incubated with various concentrations of antibodies.” for “Va.).”"}, "[10]": {"details": "by day 33, compared to both unimmunized and MVF immunized mice"}},
  "note": "Positions of bridges follow the written chain, without caps; N, C: chain ends. No end group written: not given here.",
  "data": [
    {"substance": "KLLSLIKGVIVHRLEGVE [MVF control peptide, reference compound]", "values": [
      {"measurement": "doubling time", "setting": "[1]", "value": 4.48, "unit": "days"}
    ]},
    {"substance": "KLLSLIKGVIVHRLEGVE-GPSL-CHPECQPQNGSVTCFGPEADQCVACAHYKDPPFCVA (KLLSLIKGVIVHRLEGVEGPSLCHPECQPQNGSVTCFGPEADQCVACAHYKDPPFCVA; disulfide (positions not given here)) [MVF 563 SS]", "values": [
      {"measurement": "binding to trastuzumab", "setting": "[2]", "value": "Maximum binding"},
      {"measurement": "immunogenicity", "setting": "[3]; FVB/n mice, Example 3, FIG. 3", "value": "highly immunogenic"},
      {"measurement": "titers", "setting": "[3]; two mice of the group, three weeks after the third immunization", "value": "above 250,000"},
      {"measurement": "mean tumor volumes at day 30", "setting": "[1]; listed as 563-598 SS", "value": 173.7292, "unit": "mm^3"}
    ]},
    {"substance": "KLLSLIKGVIVHRLEGVE-GPSL-CHPECQPQNGSVTCFGPEADQCVACAHYKDPPFCVA [563-598 NC]", "values": [
      {"measurement": "mean tumor volumes at day 30", "setting": "[1]", "value": 166.517, "unit": "mm^3"}
    ]},
    {"substance": "KLLSLIKGVIVHRLEGVE-GPSL-CPINCTHSCVDLDDKGCPAEQRAS [626-649 cyclized]", "values": [
      {"measurement": "IFN-γ release", "setting": "[4]", "value": "able to elicit IFN-γ release"},
      {"measurement": "higher levels of IFN-γ compared to the linear antibodies", "setting": "[4]", "value": 25, "unit": "%"},
      {"measurement": "specific lysis", "setting": "[5]", "value": 11, "unit": "%"},
      {"measurement": "immunogenicity", "setting": "[3]; inbred FVB/N mice, Example 1", "value": "higher titers"},
      {"measurement": "inhibition (reduction of growth)", "setting": "[6]", "value": 31, "unit": "%"},
      {"measurement": "mean log fluorescence", "setting": "[7]", "value": 2.29},
      {"measurement": "doubling time", "setting": "[1]", "value": 6.63, "unit": "days"},
      {"measurement": "tumor volume", "setting": "[1]; immunized FVB/N mice challenged with NT2.5, compared to linear and control MVF immunized mice", "value": "reduction in tumor volume"}
    ]},
    {"substance": "KLLSLIKGVIVHRLEGVE-GPSL-CPINCTHSCVDLDDKGCPAEQRAS [626-649 linear]", "values": [
      {"measurement": "IFN-γ release", "setting": "[4]", "value": "able to elicit IFN-γ release"},
      {"measurement": "specific lysis", "setting": "[5]", "value": 5.6, "unit": "%"},
      {"measurement": "immunogenicity", "setting": "[3]; inbred FVB/N mice, Example 1", "value": "immunogenic"},
      {"measurement": "inhibition (reduction of growth)", "setting": "[6]", "value": 58, "unit": "%"},
      {"measurement": "mean log fluorescence", "setting": "[7]", "value": 1.65},
      {"measurement": "doubling time", "setting": "[1]", "value": 4.31, "unit": "days"}
    ]},
    {"substance": "KLLSLIKGVIVHRLEGVE-GPSL-IWKFPDEEGACQPL (KLLSLIKGVIVHRLEGVEGPSLIWKFPDEEGACQPL) [MVF 613]", "values": [
      {"measurement": "recognition of HER-2", "setting": "[8]", "value": "recognize HER-2"},
      {"measurement": "shift in flow cytometry", "setting": "[9]; FVB/n purified antibodies, FIG. 5", "value": "shifted relative to normal mouse antibodies"},
      {"measurement": "recognition of HER-2", "setting": "[9]; purified antibodies from immunized mouse sera, FIG. 13", "value": "recognize HER-2"},
      {"measurement": "immunogenicity", "setting": "[3]; FVB/n mice, Example 3, FIG. 3", "value": "highly immunogenic"},
      {"measurement": "tumor volume", "setting": "[1]; [10]", "value": "reduction in tumor volume"}
    ]},
    {"substance": "KLLSLIKGVIVHRLEGVE-GPSL-LHCPALVTYNTDTFESMPNPEGRYTFGASCV (KLLSLIKGVIVHRLEGVEGPSLLHCPALVTYNTDTFESMPNPEGRYTFGASCV; also: cyclized) [MVF 266 CYC]", "values": [
      {"measurement": "tumor development and growth", "setting": "[1]; wild-type FVB/n mice, 3×106 NT2.5 cells s.c., 24 days, compared to MVF immunized mice only", "value": "delayed tumor development (A) and growth (B)"}
    ]},
    {"substance": "KLLSLIKGVIVHRLEGVE-GPSL-VACAHYKDPPFCVA (KLLSLIKGVIVHRLEGVEGPSLVACAHYKDPPFCVA; disulfide 25-34 (inferred)) [MVF 585 SS]", "values": [
      {"measurement": "tumor volume", "setting": "[1]; [10]", "value": "reduction in tumor volume"}
    ]},
    {"substance": "KLLSLIKGVIVHRLEGVE-GPSL-VARCPSGVKPDLSYMPIWKFPDEEGACQPL [597-626 linear]", "values": [
      {"measurement": "titers", "setting": "[3]; no mouse of the group above this value", "value": "≤ 120,000"}
    ]}
  ]
}
